The subject of data set [1] is adenylate cyclase in nerve cord of tobacco hornworm. The data set can be described thus: Adenylate cyclase activation in broken cell preparations of tobacco hornworm nerve cord. It counts as biochemical, tobacco hornworm (Manducca sexta). The settings on record: for activation of adenylate cyclase in nerve cord: FIG. 1. As to the method: Otherwise, the procedure is identical to that described above.
The tissue is homogenized (usually 15 mg/ml) as above in 6 mM Tris maleate, pH 7.4. […] This is done to cancel out the effects of dopamine and serotonin receptors which are usually present in nerve cord.
As detailed previously, the adenylate cyclase assay, either in the firefly or in other insect pest, is also used to identify a direct stimulator of adenylate cyclase.

The target in data set [2] is T1, Beta1 and Beta2-adrenergic-stimulated adenylate cyclase in rat liver (Rattus norvegicus, UniProt P10608).
T1 construct: adenylate cyclase in rat heart and liver; from tissue; host or cells: rat liver
T1 sequence (P10608 whole entry): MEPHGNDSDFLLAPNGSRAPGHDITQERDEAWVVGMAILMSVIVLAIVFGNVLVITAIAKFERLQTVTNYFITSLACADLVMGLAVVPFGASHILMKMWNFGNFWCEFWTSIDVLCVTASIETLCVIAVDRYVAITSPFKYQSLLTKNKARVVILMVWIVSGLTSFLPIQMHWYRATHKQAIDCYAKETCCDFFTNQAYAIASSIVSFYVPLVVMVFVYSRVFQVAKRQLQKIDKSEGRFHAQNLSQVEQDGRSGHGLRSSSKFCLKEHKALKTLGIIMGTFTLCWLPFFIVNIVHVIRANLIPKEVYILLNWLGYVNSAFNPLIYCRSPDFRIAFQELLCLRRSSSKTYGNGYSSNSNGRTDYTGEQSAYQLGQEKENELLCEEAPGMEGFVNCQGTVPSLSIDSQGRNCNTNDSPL
The data set can be described thus: Adenylate cyclase stimulation in rat liver. It counts as biochemical.

Data set [3] has as its target T2, dopamine-sensitive adenylate cyclase in rat caudate nucleus (Rattus norvegicus, UniProt P18901).
T2 construct: in the rat caudate nucleus; from tissue; host or cells: rat caudate nucleus
In words: Adenylate cyclase stimulation in rat caudate nucleus. It counts as biochemical.

In data set [4] the test system is tobacco hornworms (Manducca sexta). The data set can be described thus: In vivo leaf test (antifeeding) on tomato leaves with tobacco hornworm larvae. The settings on record: for Ki for inhibition of feeding by the larvae: applied to leaves; for rank order antifeeding effectiveness: based on the EC50 of the octopamine agonist, alone or +IBMX; for behaviour of larvae feeding on treated leaves: in vivo; for effect of addition of IBMX on antifeeding / pesticidal activity: with PDE inhibitor IBMX; for % Leaf Remaining: Table 5, IBMX 0.1 g/100 ml.

For data set [5], the system named is isolated tails of Photinus males. The data set can be described thus: Stimulation of light production after injection into transected, isolated firefly tails. It counts as in vivo. To be noted: for EC50 for stimulated light emission: injected into isolated tails.
The subject of data set [6] is octopamine-sensitive adenylate cyclase. To be noted: Nathanson et al. 1981; cited from earlier work.
Data set [7] shares this test system. The data set can be described thus: Activation of octopamine-sensitive adenylate cyclase, firefly light organ broken cell preparation. It is filed as biochemical, Photinus pyralis. To be noted: for Ka ratio to octopamine / Vmax (% OCT): Table 2, clonidines; for Vmax (% OCT): N.A. = no activity.
Data set [8] deals with T3, Beta1 and Beta2-adrenergic-stimulated adenylate cyclase in rat heart (Rattus norvegicus, UniProt P18090).
T3 construct: adenylate cyclase in rat heart and liver; from tissue; host or cells: rat heart
T3 sequence (P18090 whole entry): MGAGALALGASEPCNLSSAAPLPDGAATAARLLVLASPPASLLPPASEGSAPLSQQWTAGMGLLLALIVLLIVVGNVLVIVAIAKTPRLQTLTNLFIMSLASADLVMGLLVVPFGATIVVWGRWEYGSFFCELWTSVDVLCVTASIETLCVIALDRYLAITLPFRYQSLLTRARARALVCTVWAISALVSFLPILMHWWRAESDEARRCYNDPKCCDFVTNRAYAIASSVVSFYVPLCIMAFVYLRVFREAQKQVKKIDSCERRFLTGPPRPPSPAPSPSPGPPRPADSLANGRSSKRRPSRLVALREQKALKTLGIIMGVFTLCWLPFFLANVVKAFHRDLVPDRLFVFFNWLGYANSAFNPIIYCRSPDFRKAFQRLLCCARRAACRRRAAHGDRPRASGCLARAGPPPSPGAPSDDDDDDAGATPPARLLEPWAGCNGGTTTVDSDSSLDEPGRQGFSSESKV
The data set can be described thus: Adenylate cyclase stimulation in rat heart. It is filed as biochemical.

Data set [9] concerns Beta1 and Beta2-adrenergic-stimulated adenylate cyclase in rat heart. In words: Adenylate cyclase stimulation in rat heart. It is filed as biochemical.
Data set [10] has as its system Beta1 and Beta2-adrenergic-stimulated adenylate cyclase in rat liver. The data set can be described thus: Adenylate cyclase stimulation in rat liver. It is filed as biochemical.
The subject of data set [11] is cyclic AMP in intact nerve cords of tobacco hornworms. The data set can be described thus: Cyclic AMP content of intact tobacco hornworm nerve cords. It counts as cell-based. To be noted: 5 minutes. As to the method:
After 5 minutes, the intact nerve cord was quickly treated to release all cyclic AMP which was present within the tissue.

Data set [12] relates to adenylate cyclase in the firefly lantern. In words: Direct activation of adenylate cyclase in firefly lantern (forskolin). It counts as biochemical, Photinus pyralis. The settings on record: FIG. 2, firefly lantern. An excerpt: The second type of pest controlling compounds (2) useable in the present compositions are direct stimulators of the pest enzyme adenylate cyclase. These compounds bypass the receptor, and interact with one or another of the associated catalytic or regulatory subunits of adenylate cyclase, thereby stimulating the formation of cyclic AMP. Suitable compounds can be determined from assay of pest adenylate cyclase as described above.
Specimens of Photinus pyralis were collected in summer, frozen on dry ice, and stored at -90°. […] For each experiment, a number of insects were thawed and maintained at 4° C. […]
Adenylate cyclase activation by test compounds was measured in test tubes containing (in 0.3 ml) 80 mM Tris-maleate, pH 7.4; 10 mM theophylline; 8 mM MgCl2; 0.1 mM GTP; 0.5 mM ethylene glycol bis(beta-aminoethyl ether)-N,N,N',N'-tetraacetic acid; 2 mM ATP; 0.06 ml of P2 fractions; and the various compounds to be tested. Prior experiments had determined that, under these conditions, octopamine-sensitive adenylate cyclase activity is optimized. […] Cyclic AMP in the supernatant was measured by protein-binding assay, according to the method of Brown et al., Adv. […] Protein concentration was determined by the method of Lowry et al., Journal of Biological Chemistry 193: 265-275 (1951). […]

Data set [13] is described as follows: Cyclic AMP analogue remaining after incubation with nerve cord homogenate. The settings on record: in vitro 4 hours; IBMX 0.1 mM; FIG. 7. It counts as in vitro ADME, tobacco hornworm. As to the method:
It has been previously shown, above, that PDE inhibition can increase the concentration of cyclic AMP in insect tissue. […] In order to do this, a fixed amount of butyl-benzylthio cyclic AMP was incubated in vitro for 4 hours in the presence of a tissue homogenated from tobacco hornworm nerve cord. In some tubes, IBMX (0.1 mM) was added to inhibit PDE. After the incubation, the amount of butyl-benzylthio cyclic AMP remaining was measured by protein binding assay (Brown et al., supra), using a standard curve based upon butyl-benzylthio cyclic AMP.

Where [14] appears, read: FIG. 3, hornworm larvae nerve cord.

T2 sequence (P18901 whole entry): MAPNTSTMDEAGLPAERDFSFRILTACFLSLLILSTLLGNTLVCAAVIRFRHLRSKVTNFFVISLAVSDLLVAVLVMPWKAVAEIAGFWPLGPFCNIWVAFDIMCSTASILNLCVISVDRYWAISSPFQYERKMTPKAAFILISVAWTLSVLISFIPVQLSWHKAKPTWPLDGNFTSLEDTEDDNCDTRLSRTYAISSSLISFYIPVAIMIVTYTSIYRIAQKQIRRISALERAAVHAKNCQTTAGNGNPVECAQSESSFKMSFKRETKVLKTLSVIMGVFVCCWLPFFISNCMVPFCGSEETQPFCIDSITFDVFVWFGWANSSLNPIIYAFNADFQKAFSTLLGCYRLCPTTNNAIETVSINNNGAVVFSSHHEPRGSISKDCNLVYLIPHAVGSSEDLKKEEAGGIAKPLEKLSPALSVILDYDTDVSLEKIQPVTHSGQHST

Turning to `NCC(O)c1ccc(O)cc1` (racemic) [octopamine, reference compound], the “activation of adenylate cyclase in nerve cord” value in data set [1] is “potent activators”. In [2], the “stimulation of adenylate cyclase” value is “neither octopamine nor NC5 were active”. Further, in data set [3], the “stimulation of adenylate cyclase” value was “neither octopamine nor NC5 caused any significant enzyme stimulation”. Also, in data set [4], the “Ki for inhibition of feeding by the larvae” value was determined as 0.5 mg/leaf; the “rank order antifeeding effectiveness” value is reported as “DDCDM+IBMX=NC7+IBMX>Octopamine+IBMX=DDCDM alone>NC7 alone>octopamine alone”; the “behaviour of larvae feeding on treated leaves” value was “tremors, hyperactivity, and leaf walk-off behavior”; the “effect of addition of IBMX on antifeeding / pesticidal activity” value was “considerably elevated both cyclic AMP content and pesticidal activity”. Also, in [4] (no IBMX), the pesticidal activity entry is reported as “little pesticidal activity”. Besides, in data set [5], the “EC50 for stimulated light emission” value is listed as “about 5 nmoles/tail”.
As for `CC(C)NC[C@H](O)c1ccc(O)c(O)c1` [(-)-isoproterenol, reference compound], the “stimulation of adenylate cyclase” value in data set [2] is reported as “potently stimulates”.
Turning to `CNC=Nc1ccc(Cl)cc1C` [DCDM, N-demethylchlordimeform], the “potency relative to octopamine as partial agonist of light organ octopamine-stimulated adenylate cyclase” value in data set [6] is reported as “about six-fold more potent than octopamine”.
With `CCc1cccc(CC)c1N=C1NCCN1` [NC 5, 2-(2,6-diethylphenylimino)imidazolidine], in data set [7], the “Ka (half-maximal activation)” value is recorded as “about 1 μM”, the “Ka fold lower than that due to octopamine” value was found to be 20 fold, the “maximal stimulation relative to octopamine” value is “equal to that caused by octopamine” and the “Ka ratio to octopamine” value is given as 19.0. Besides, the “Vmax (% OCT)” value in data set [7] was found to be 97 % OCT. In [7] (combinations of octopamine and NC5), the “activity as an octopamine antagonist” value is “no activity as an octopamine antagonist”. Moreover, the “lowest concentration with significant stimulation” value in data set [7] (unit not given) is 3×10^-8. Moreover, the “stimulation of adenylate cyclase” value in [8] is “almost completely inactive”. In addition, in data set [9], the “inhibition of basal adenylate cyclase activity” value is on record as “In none of the three mammalian tissues did NC5 cause any inhibition”. Besides, the “stimulation of adenylate cyclase” value in data set [2] is reported as “neither octopamine nor NC5 were active”. The “inhibition of basal adenylate cyclase activity” value in [10] is reported as “In none of the three mammalian tissues did NC5 cause any inhibition”. Moreover, in data set [3], the “inhibition of basal adenylate cyclase activity” value is “In none of the three mammalian tissues did NC5 cause any inhibition” and the “stimulation of adenylate cyclase” value was “neither octopamine nor NC5 caused any significant enzyme stimulation”. Also, the “% Leaf Remaining” value in data set [4] (agonist 3 × 10^-1 gm/100 ml) was found to be 70%. In data set [4], the “effect of addition of IBMX on antifeeding / pesticidal activity” value was “substantial increases in the potency”. Besides, the “EC50 for stimulated light emission” value in data set [5] is listed as “about 0.3 nmoles”. Also, the “times as potent as octopamine” value in data set [5] (light emission EC50) is on record as “more than 16 times”.
Consider `Cc1cc(Cl)ccc1N=C1NCCN1` [NC 7, 2-(2-methyl, -4-chlorophenylimino)imidazolidine], for which, in [7], the octopamine potency ratio came to 9.8, the “Ka ratio to octopamine” value came to 9.8 and the “Vmax (% OCT)” value is listed as 68 % OCT. For the same molecule, the “activation of adenylate cyclase in nerve cord” value in [1] is “potent activators”. The “% Leaf Remaining” value in [4] (agonist 10^-2 gm/100 ml) is on record as 85%. Further, in data set [4], the “Ki for inhibition of feeding by the larvae” value was found to be 0.01 mg/leaf; the “rank order antifeeding effectiveness” value is “DDCDM+IBMX=NC7+IBMX>Octopamine+IBMX=DDCDM alone>NC7 alone>octopamine alone”; the “behaviour of larvae feeding on treated leaves” value was “tremors, hyperactivity, and leaf walk-off behavior”; the “effect of addition of IBMX on antifeeding / pesticidal activity” value is on record as “substantial increases in the potency”. In addition, the “Cyclic AMP Content (Fold-increase over Control)” value in data set [11] (+0.1 mM IBMX) was 13.9 ± 3.0 Fold-increase over Control. The “Cyclic AMP Content (Fold-increase over Control)” value in data set [11] (-IBMX) was 2.2 ± 0.2 Fold-increase over Control.
In the case of `C=C[C@@]1(C)CC(=O)[C@]2(O)[C@@]3(C)[C@@H](O)CCC(C)(C)[C@@H]3[C@H](O)[C@H](OC(C)=O)[C@@]2(C)O1` [forskolin], in [1] (setting [14]), the Ka ratio was 0.20 and the Vmax entry is listed as “about 100%”. Moreover, the antifeeding activity result in data set [4] (compound itself, in words) is listed as “has antifeeding activity”. In addition, in data set [4], the “effect of addition of IBMX on antifeeding / pesticidal activity” value was “enhanced”. Moreover, in [12], the Ka ratio came to 0.22 and the Vmax is recorded as 100%.
For the molecule `CCCCNc1ncnc2c1nc(SCc1ccccc1)n2[C@@H]1O[C@@H]2COP(=O)(O)O[C@H]2[C@H]1O` [n-butylaminobenzylthio cyclic AMP, 6-n-butylamino-8-benzylthio-cyclic AMP, reference compound], the antifeeding activity result in data set [4] (concentration of 1%, absence of IBMX) is “showed antifeeding activity”. Moreover, the “effect of addition of IBMX on antifeeding / pesticidal activity” value in data set [4] is reported as “increased by addition of IBMX”. The “amount of cyclic AMP analogue present after 4 hours, with IBMX versus without” value in data set [13] was “more than doubled”.
